43 molecules from patent publication US7507727B2, “Substituted quinobenzoxazine analogs and methods of using thereof” (Cylene Pharmaceuticals, Inc., priority 2003, dated 2009) can be followed below.

Bounds are passed on as bounds.

For one assay, the target named is c-Myc template DNA (c-myc quadruplex). Nature of the assay: Quadruplex binding / stop assay (Taq polymerase arrest, capillary electrophoresis). The conditions noted are these: read-out: S DATA; Table 1D, stop assay data.
On to `CN(C)CC(C)(C)CNC(=O)c1cn2c3c(c(N4CCC(NC(=O)OC(C)(C)C)C4)c(F)cc3c1=O)Oc1ccccc1-2` (stereo not shown) [compound 1590], for which the IC50 was over 15 µM.
On the same count and under the same terms, the same measure for `CC1(C)CC(NC(=O)c2cn3c4c(c(NCCN5CCCC5)c(F)cc4c2=O)Oc2ccccc2-3)CC(C)(C)N1` [compound 1603]: over 15 µM; for `CC(C)N1CCN(c2c(F)cc3c(=O)c(C(=O)NCCN4CCOCC4)cn4c3c2Oc2ccccc2-4)CC1` [compound 1562]: over 15 µM; for `CN1CCCC1CCNC(=O)c1cn2c3c(c(NC4CN5CCC4CC5)c(F)cc3c1=O)Oc1cc3ccccc3cc1-2` (stereo not shown) [compound 1495]: 0.75 µM.
Still for that read-out and setting: in the case of `CC(C)CC(CO)Nc1c(F)cc2c(=O)c(C(=O)NCCC3CCCN3C)cn3c2c1Oc1cc2ccccc2cc1-3` (stereo not shown) [compound 1743] it was over 15 µM.
In the case of `COc1cccc(CCNc2c(F)cc3c(=O)c(C(=O)NCCC4CCCN4C)cn4c3c2Oc2cc3ccccc3cc2-4)c1` (stereo not shown) [compound 1669], the IC50 is 1.75 µM.
On the same count and under the same terms, the same measure for `COc1cccc(CCNc2c(F)cc3c(=O)c(C(=O)NCCC4CCCN4C)cn4c3c2Oc2cc3ccccc3cc2-4)c1OC` (stereo not shown) [compound 1673]: 2.5 µM; for `O=C(NCCN1CCCC1)c1cn2c3c(c(SCCc4cnccn4)c(F)cc3c1=O)Oc1ccccc1-2` [compound 1785]: over 15 µM; for `O=C(NCCN1CCCC1)c1cn2c3c(c(NCCN4CCOCC4)c(F)cc3c1=O)Oc1cc(Cl)ccc1-2` [compound 1814]: 7.2 µM.
Consider `CN(C)CCCCNc1ccc2c(=O)c(C(=O)NCCCN3CCOCC3)cn3c2c1Oc1cc2ccccc2cc1-3` [compound 1542], for which the IC50 is over 15 µM.
As for `CN(C)CCCCNC(=O)c1cn2c3c(c(NCCCN4CCOCC4)ccc3c1=O)Oc1cc3ccccc3cc1-2` [compound 1532], the IC50 is over 15 µM.
Same read-out and setting: the same measure for `CCOC(=O)c1cn2c3c(c(N4CCC(c5cnccn5)C4)c(F)cc3c1=O)Oc1ccc(C#N)cc1-2` (stereo not shown) [compound 1775]: over 15 µM.
Still for that read-out and setting: the same measure for `CN1CCCC1CCNC(=O)c1cn2c3c(c(N4CCC(N)C4)c(F)cc3c1=O)Oc1ccccc1-2` (stereo not shown) [compound 1623]: over 15 µM; for `CN1CCCC1CCNC(=O)c1cn2c3c(c(NC4CCOC(C)(C)C4)c(F)cc3c1=O)Oc1cc3ccccc3cc1-2` (stereo not shown) [compound 1751]: over 15 µM.
Still for that read-out and setting: the same measure for `CN1CCC(NC(=O)c2cn3c4c(c(N5CCC(N)C5)c(F)cc4c2=O)Oc2cc4ccccc4cc2-3)CC1` (stereo not shown) [compound 1717]: 0.75 µM; for `CN1CCCC1CCNC(=O)c1cn2c3c(c(N4CCC(c5cnccn5)C4)c(F)cc3c1=O)Oc1ccc(C#N)cc1-2` (stereo not shown) [compound 1776]: 6.8 µM; for `CN1CCCC1CCNC(=O)c1cn2c3c(c(NCc4ccccc4N4CCOCC4)c(F)cc3c1=O)Oc1cc3ccccc3cc1-2` (stereo not shown) [compound 1511]: 1.75 µM.
In the case of `CN1CCN(CCCNc2c(F)cc3c(=O)c(C(=O)N4CCC(NC(=O)OC(C)(C)C)C4)cn4c3c2Oc2ccccc2-4)CC1` (stereo not shown) [compound 1575], the IC50 is over 15 µM.
On to `CC(C)OCCNc1c(F)cc2c(=O)c(C(=O)NCCC3CCCN3C)cn3c2c1Oc1cc2ccccc2cc1-3` (stereo not shown) [compound 1746], for which the IC50 was over 15 µM.

Still in this assay, the particulars now being: read-out: Stop Data c-Myc μM; concentration at which 50% of the DNA was arrested (arrested:full-length 1:1).
As for `CN1CCN(CCCNc2c(F)cc3c(=O)c(C(=O)O)cn4c5cc6oc7cc(N)ccc7[nH]c6cc5oc2c34)CC1` [compound 22], the IC50 came to 0.75 µM.
As to `CN1CCC[C@H]1CCNC(=O)c1cn2c3c(c(N4CCC(c5cnccn5)C4)c(F)cc3c1=O)Oc1cc3ccccc3cc1-2` (stereo partly shown) [compound 355], the IC50 stood at 0.89 µM.
With `Cc1ncn(C(=O)c2cn3c4c(c(N5CCC(N)C5)c(F)cc4c2=O)Oc2cc4ccccc4cc2-3)c1CO` (stereo not shown) [compound 199], the IC50 was 1.75 µM.
For `CN(C)CCCCNc1ccc2c(=O)c(C(=O)NC3CC(C)(C)NC(C)(C)C3)cn3c2c1Oc1cc2ccccc2cc1-3` [compound 276], the IC50 worked out at 1.75 µM.
On to `CC(C)(C)OC(=O)N[C@@H]1CCN(C(=O)c2cn3c4c(c(NCCN5CCCC5)c(F)cc4c2=O)Oc2cc4ccccc4cc2-3)C1` [compound 72], for which the IC50 was 2.5 µM.
Still for that read-out and setting: the same measure for `CN(C)/C=N/CCCCNC(=O)c1cn2c3c(c(N4CC[C@@H](NC(=O)OC(C)(C)C)C4)c(F)cc3c1=O)Oc1cc3ccccc3cc1-2` [compound 212]: 1.75 µM; for `CN1CCCC1CCNC(=O)c1cn2c3c(c(N4CCC(NC(=O)OC(C)(C)C)C4)c(F)cc3c1=O)Oc1cc3ccccc3cc1-2` (stereo not shown) [compound 213]: 1.75 µM; for `CC(C)(C)OC(=O)NC1CCN(c2c(F)cc3c(=O)c(C(=O)NCC[N+](C)(C)C)cn4c3c2Oc2cc3ccccc3cc2-4)C1` (stereo not shown) [compound 188]: 1.75 µM.
On to `N[C@@H]1CCN(c2c(F)cc3c(=O)c(C(=O)N4CCOCC4)cn4c3c2Oc2c-4ccc3ccccc23)C1` [compound 79], for which the IC50 was 2.5 µM.
For `CN1CCCC1CCNc1ccc2c(=O)c(C(=O)NCCN3CCCC3)cn3c2c1Oc1cc2ccccc2cc1-3` (stereo not shown) [compound 448], the IC50 stood at 0.75 µM.
On to `CN1CCCC1CCNC(=O)c1cn2c3c(c(NCC(O)CO)c(F)cc3c1=O)Oc1cc3ccccc3cc1-2` (stereo not shown) [compound 292], for which the IC50 was 1.75 µM.
On the same count and under the same terms, the same measure for `CN(C)CCCCNc1c(F)cc2c(=O)c(C(=O)N3CC[C@H](N)C3)cn3c4cc5c(cc4oc1c23)c(=O)c1ccccc15` [compound 217]: 1.75 µM.
With `CC(=O)N[C@@H]1CCN(c2c(F)cc3c(=O)c(C(=O)NCCC4CCCN4C)cn4c3c2Oc2cc3c(cc2-4)oc2ccccc23)C1` (stereo partly shown) [compound 406], the IC50 came out at 0.75 µM.
For the molecule `CC(C)(C)OC(=O)NC1CCN(c2c(F)cc3c(=O)c(C(=O)NCCc4cnc[nH]4)cn4c3c2Oc2cc3ccccc3cc2-4)C1` (stereo not shown) [compound 181], the IC50 stood at 1.75 µM.
Still for that read-out and setting: in the case of `COc1cccc(CCNc2c(F)cc3c(=O)c(C(=O)NCCC4CCCN4C)cn4c3c2Oc2cc3ccccc3cc2-4)c1` (stereo not shown) [compound 289] it was 1.75 µM.
On the same count and under the same terms, the same measure for `CN1CCCC1CCNC(=O)c1cn2c3c(c(NCC4CCN(C(=O)OC(C)(C)C)C4)c(F)cc3c1=O)Oc1cc3ccccc3cc1-2` (stereo not shown) [compound 441]: 0.75 µM; for `CN1CCCC1CCNC(=O)c1cn2c3c(c(N(C)C4CCNC4)c(F)cc3c1=O)Oc1cc3ccccc3cc1-2` (stereo not shown) [compound 439]: 0.75 µM.
On the same count and under the same terms, in the case of `CN(C)CCCCNC(=O)c1cn2c3cc4oc5cc([N+](=O)[O-])ccc5[nH]c4cc3oc3c(NCCCCN(C)C)c(F)cc(c1=O)c32` [compound 587] it was 0.18 µM.
In the case of `CN(C)CCCCNC(=O)c1cn2c3c(c(NCCCN4CCN(C)CC4)c(F)cc3c1=O)Oc1cc3ccccc3cc1-2` [compound 396], the IC50 is 0.75 µM.
With `CN1CCN(CCCNC(=O)c2cn3c4c(c(NC(=O)CCN5CCCC5)c(F)cc4c2=O)Oc2cc4ccccc4cc2-3)CC1` [compound 88], the IC50 came out at 2.5 µM.
On the same count and under the same terms, the same measure for `CCN(CC)CCNc1c(F)cc2c(=O)c(C(=O)N3CCOCC3)cn3c2c1Oc1cc2ccccc2cc1-3` [compound 305]: 1.05 µM.
Regarding `Nc1c(F)c(NCCCN2CCOCC2)c2c3c1c(=O)c(C(=O)O)cn3-c1cc3ccccc3cc1O2` [compound 14], the IC50 came to 1.75 µM.
The same measure, in the same setting: the same measure for `CN(C)CCCCNC(=O)c1cn2c3c(c(N4CC[C@@H](NC(=O)OC(C)(C)C)C4)c(F)cc3c1=O)Oc1cc3ccccc3cc1-2` [compound 66]: 2.5 µM.
As to `COc1cccc(CCNc2c(F)cc3c(=O)c(C(=O)NCCC4CCCN4C)cn4c3c2Oc2cc3ccccc3cc2-4)c1OC` (stereo not shown) [compound 100], the IC50 worked out at 2.5 µM.
